Experimental data as given in US12570975B2, “Composition for diagnosis or treatment of a condition associated with increased activity of EIF4E comprising an EIF4E inhibitor” (SoVarGen Co., Ltd., priority 2019, dated 2026).

Assays:
[1] = test system: epilepsy models (mTOR p.C1483Y or mTOR p.L2427P); test: Seizure monitoring after ICV injection of ASO in FMCD epilepsy models; format: in vivo, mouse; settings: ICV injection 100-500 μg, day 3 to day 70 after injection
Description: (§1) For this experiment, animal models established using pCIG-mTOR p.C1483Y-IRES-EGFP and pCIG-mTOR p.L2427P-IRES-EGFP of Example 1 were used while animal models established with pCIG-mTOR (WT)-IRES-EGFP […] served as a control. The ASOs were each intracerebroventricularly injected (ICV injection) at a dose of 100-500 μg to the brains of the mice that had been identified to undergo epileptic seizure. From day 3 after ASO injection to up to day 70, 12-hour video were recorded for seizure monitoring 2-3 times a week per mouse.

[2] = test system: eIF4E; test: eIF4E expression in cerebral cortex, cerebellum and spinal cord after ICV injection of ASO; settings: mouse, in vivo
Description: Each of panels B to D of FIG. 17 and panels E and F of FIG. 18 represents “normal mice”, whereas panel A of FIG. 17 and panels G and H of FIG. 18 represents “FMCD animal models.”
as §1
After intraventricular injection of the ASO candidates to the animal models, eIF4E expression was reduced in the cerebral cortex, the cerebellum, and the spinal cord, with the consequent reduction in seizure frequency.

[3] = test system: GFP-labeled mutant cells of FMCD animal models; test: Neuronal (mutant) cell size after ICV injection of ASO; format: in vivo, mouse; settings: intractable epilepsy models, week 4-5 after ICV injection
Description: Week 4-5 after intracerebroventricular injection of ASO into the FMCD animal models established using pCIG-mTOR mutant-IRES-EGFP vector of Example 1, the brain was removed, fixed, sectioned, and immunostained. For neuronal cell size (FIG. 22), GFP (green)-labeled mutant cells (ASO control or ASO eIF4E) were measured for size in the obtained mouse brain tissues.

[4] = test system: FMCD and epilepsy animal models (mTOR-p.C1483Y, mTOR-p.L2427P); test: 3-Chamber test (social interaction), FMCD epilepsy models; format: in vivo, mouse; settings: ASO-eIF4E models compared to ASO-control models
Description: The 3-Chamber test measures social interaction and preference for social novelty. This apparatus consisted of three chambers with dimensions of 12×20×26 cm for the center chamber and dimensions of 14×20×26 cm for the opposite side chambers. Each of the opposite side chambers included a plastic cage (11 cm in diameter, 2.15 cm in height) for an object or stranger mouse in a corner. This experiment consisted of three sessions of habituation (10 min), exploring object/mouse (10 min), and exploring familiar/new mouse (10 min). In the second session, a WT stranger mouse was randomly placed in a plastic cage while the opposite plastic cage was empty. The mouse was allowed to freely explore the whole apparatus. The time spent in each chamber was measured and then used for the subsequent social interaction test. In the last session, a new WT stranger was placed in the empty plastic cage.
Experiments were performed on the FMCD and epilepsy animal models (mTOR-p.C1483Y, mTOR-p.L2427P) of Example 7-1 and the control normal animal models (mTOR-WT). […]
(§2) Briefly, ASO #77 was administered by ICV injection to the FMCD and epilepsy animal models were generated with the pCIG-mTOR mutant-IRES-EGFP of Example 1. ASO #77 was evaluated for therapeutic potential for neuropsychiatric disorder accompanying the FMCD epilepsy animal models in the substantially same manner as in Example 6.

[5] = test system: FMCD and epilepsy animal models (mTOR-p.C1483Y, mTOR-p.L2427P); test: Marble burying test, FMCD epilepsy models; format: in vivo, mouse; settings: ASO-eIF4E models compared to ASO-control models
Description: A mouse was placed in the cage.
Experiments were performed on the FMCD and epilepsy animal models (mTOR-p.C1483Y, mTOR-p.L2427P) of Example 7-1 and the control normal animal models (mTOR-WT). The same sheIF4E as that described in Example 2 was used. Week 2 after sheIF4E injection, the handling was performed in the animals. Week 3 after sheIF4E injection, the animals were subjected to the behavioral tests.
The epilepsy animal models were subjected to the substantially same behavioral abnormality assay as in Example 6. The results are depicted in FIGS. 28 and 29.
as §2

[6] = test system: male mice; test: Repeated dose toxicity assay by subcutaneous injection; format: in vivo, mouse; settings: subcutaneous 100 mg/kg, seven times within a month
Description: ASO #16, #21, #27, #35, #75, #77, and #89 selected in Example 4 were each assayed for repeated dose toxicity by subcutaneous injection.
Repeated dose toxicity assay of the […] was conducted by Biotoxtech Co., Ltd. In repeated dose toxicity assay, each ASO sequence was subcutaneously injected at a dose of 100 mg/kg to groups of four male mice seven times in total within a month (days 1, 3, 5, 7, 14, 21, and 28). Two days after the last injection, histopathologic observations were made.

[7] = test system: mutant-expressing cells in the brain tissue; settings: mouse, in vivo
[8] = test system: C57BL/6J mice; settings: mouse, in vivo
[9] = test system: C57BL/6J mice; settings: in vivo

ASO #77: eIF4E-targeting antisense oligonucleotide of SEQ ID NO: 77, 2′-MOE gapmer, all phosphorothioate linkages (antisense GATCCTTCACCAATGTTACA; all phosphorothioate, sugars by position and methylation of C not given here; 2'-MOE gapmer)
seizure frequency [1]: remarkably reduced
eIF4E expression in animal models [2]: reduce eIF4E expression
mutant cell size [3]: therapeutic effects
time spent in sniffing zone (social ability) [4]: increased
number of buried marbles (repetitive behavior) [5]: increased
dead or moribund animals [6]: No dead or moribund animals
delivery into mutant-expressing cells in the brain tissue [7]: effectively delivered
dyskinesia (behavior test) [8]: no dyskinesia
time spent in center (index of anxiety) [8]: not changed
time spent to interact with the stranger mouse (index of sociality and depression) [9]: not changed
